Results reported in patent publication US9113641B2, “Probiotic bacteria and regulation of fat storage” (Arla Foods amba, priority 2007, dated 2015).

Key:
Type in all cases: cell-based, human
[1] = system: FIAF expression in HCT116 cells; assay: FIAF expression in HCT116 cells by real time PCR after stimulation with bacteria, media or compounds; conditions: concentration curve, 100 μM CLA for 6 h and 24 h
Experimental: (§1) The human colorectal adenocarcinoma cell lines HCT116 (CCL-247, deposit at ATCC), LoVo (CCL-229, deposit ATCC), HT29 (HTB-38, deposit ATCC) and SW480 (CCL-228, deposit ATCC) were grown and maintained according to supplier's recommendations.
Strain F19 was always pre-cultured for 6-8 h at 37° C. on a rotating platform (225 rpm). Pre-cultures were then added to pre-warmed deMan Rogosa Sharpe (MRS) medium (dilution 1:20). The cultures were cultivated overnight prior to use. Bacterial concentration at OD600nm was determined: 1 OD600nm=1×10^8 F19/ml. The required amount of F19 was resuspended in an appropriate volume of the respective pre-warmed medium without antibiotics.
Co-culture was prepared by washing the colonic cells with warm PBS. Cells were incubated with 2×10^7/ml of F19 or with medium alone. The experiment was terminated by thoroughly washing the plates with ice-cold PBS.
As a control, F19 was heat-inactivated by incubating at 80° C. for 30 minutes. […]
RNA was prepared using the Qiagen RNeasy Mini Kit following the manufacturer's protocol and cDNA was synthesised using the cDNA synthesis kit from Invitrogen according to protocol. Semi-quantitative, SYBR Green based (Applied Biosystems) real time PCR was used to detect transcripts. […] The mRNA levels of each sample were determined in triplicates. […]

[2] = system: FIAF expression in HT29 cells, PPARγ incapacitated by siRNA; assay: FIAF expression in HT29 cells with PPARγ siRNA
Experimental: as §1
(§2) RNA was prepared using the Qiagen RNeasy Mini Kit following the manufacturer's protocol and cDNA was synthesised using the cDNA synthesis kit from Invitrogen according to protocol. Semi-quantitative, SYBR Green based (Applied Biosystems) real time PCR was used to detect transcripts. Forward and reverse primers were mixed at equal concentration and used at a final concentration of 0.2 μM. ADRP Fw: 5′-[…]-3′ (SEQ ID NO:1), Rv: 5′-[…]-3′ (SEQ ID NO:2); Beta-actin Fw: 5′-CCTGGCACCCAGCACAAT-3′ (SEQ ID NO:3), Rv: 5′-[…]-3′ (SEQ ID NO:4); FIAF Fw: 5′-AAAGAGGCTGCCCGAGAT-3′ (SEQ ID NO:5), Rv: 5′-TCTCCCCAACCTGGAACA-3′ (SEQ ID NO:6); ME Fw: 5′-[…]-3′ (SEQ ID NO:7), Rv: 5′-[…]-3′ (SEQ ID NO:8). Each experiment was carried out in sample duplicates. The mRNA levels of each sample were determined in triplicates. Real time PCR was performed using the ABI 7500 System for data acquisition and analysis by using the ABI 7500 System Sequence Detection software. Data is presented as mean values with standard errors.
Elimination of PPAR transcripts from HT29 cells was accomplished by Dharmacons readymade siRNA products (SMARTpool Human PPARG). […]

[3] = system: Adipose differentiation-related protein (ADRP); assay: Expression of PPARγ target gene ADRP in HCT116 cells (real time PCR); conditions: 100 μM CLA for 24 h
Experimental: as §1
(§3) Conjugated linoleic acid (CLA; 94594) was purchased as a trans-10, cis-12 mix from Sigma. PPARγ and PPARα ligands Troglitazone (5 μM) and WY-14643 (100 μM) were products from Cayman.
as §2, with “Data is presented as mean values with standard errors.” left out

malic enzyme (ME) = assay: Expression of PPARα target gene ME in HCT116 cells (real time PCR); conditions: 100 μM CLA for 24 h
Experimental: as §1, §3
as §2, with “Data is presented as mean values with standard errors.” left out

Substance: Conjugated linoleic acid [CLA]
- FIAF expression induced by CLA, dose and time dependence [1]: upregulate FIAF expression in a dose and time dependent manner
- FIAF expression when PPARγ is incapacitated by siRNA [2]: no longer enhanced
- Expression of PPARγ target gene ADRP [3]: increased expression
- Expression of PPARα target gene ME (malic enzyme (ME)): increased expression
